PubChem BioAssay AID192 (DTP/NCI, 2004)
“And” between values parts separate entries of the source, which are not always exact repeats. Equal values may be shown once. Toxic doses and inconclusive results are not listed. How the source made its calls: active means survival T/C of 150% or more; inactive means T/C below 125% in these data.

Tested on: BDF1 mice, B16 melanoma ip, median survival T/C
Assay: NCI In Vivo Anticancer Drug Screen. Data for tumor model B16 Melanoma (intraperitoneal) in B6D2F1 (BDF1) mice
Conditions: endpoint: median survival time, higher = longer survival
How it was run: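 In this screen, activity was judged from survival or tumor size in treated versus vehicle-treated tumor-bearing mice, reported as T/C.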

[1] = dose: 50.0 mg/kg/injection, schedule: Q01DX009 (ip), vehicle: Klucel (hydroxypropylcellulose) (HPC)
[2] = dose: 100.0 mg/kg/injection, schedule: Q01DX009 (ip), vehicle: Klucel (hydroxypropylcellulose) (HPC)
[3] = dose: 200.0 mg/kg/injection, schedule: Q01DX009 (ip), vehicle: Klucel (hydroxypropylcellulose) (HPC)
[4] = dose: 6.25 mg/kg/injection, schedule: Q01DX009 (ip), vehicle: saline
[5] = dose: 12.5 mg/kg/injection, schedule: Q01DX009 (ip), vehicle: saline
[6] = dose: 25.0 mg/kg/injection, schedule: Q01DX009 (ip), vehicle: saline
[7] = dose: 50.0 mg/kg/injection, schedule: Q01DX009 (ip), vehicle: saline
[8] = dose: 100.0 mg/kg/injection, schedule: Q01DX009 (ip), vehicle: saline
[9] = dose: 12.5 mg/kg/injection, schedule: Q01DX009 (ip), vehicle: saline with Tween-80
[10] = dose: 25.0 mg/kg/injection, schedule: Q01DX009 (ip), vehicle: saline with Tween-80
[11] = dose: 400.0 mg/kg/injection, schedule: Q01DX009 (ip), vehicle: Klucel (hydroxypropylcellulose) (HPC)
[12] = dose: 25.0 mg/kg/injection, schedule: Q01DX009 (ip), vehicle: Klucel (hydroxypropylcellulose) (HPC)
[13] = dose: 100.0 mg/kg/injection, schedule: Q04DX003 (ip), vehicle: saline
[14] = dose: 200.0 mg/kg/injection, schedule: Q04DX003 (ip), vehicle: saline
[15] = dose: 400.0 mg/kg/injection, schedule: Q04DX003 (ip), vehicle: saline
[16] = dose: 50.0 mg/kg/injection, schedule: Q01DX009 (ip), vehicle: saline with Tween-80
[17] = dose: 12.5 mg/kg/injection, schedule: Q01DX009 (ip), vehicle: Klucel (hydroxypropylcellulose) (HPC)
[18] = dose: 100.0 mg/kg/injection, schedule: Q04DX003 (ip), vehicle: Klucel (hydroxypropylcellulose) (HPC)
[19] = dose: 200.0 mg/kg/injection, schedule: Q04DX003 (ip), vehicle: Klucel (hydroxypropylcellulose) (HPC)
[20] = dose: 400.0 mg/kg/injection, schedule: Q04DX003 (ip), vehicle: Klucel (hydroxypropylcellulose) (HPC)
[21] = dose: 200.0 mg/kg/injection, schedule: Q01DX009 (ip), vehicle: saline
[22] = dose: 100.0 mg/kg/injection, schedule: Q01DX009 (ip), vehicle: saline with Tween-80
[23] = dose: 200.0 mg/kg/injection, schedule: Q01DX009 (ip), vehicle: saline with Tween-80

Measured: T/C

CC(O)C1(O)C(O)CC(OC2c3cc4c(c(O)c3[C@@H]3C[C@@]2(C)OC32C=c3cc[nH]c3=N2)C(=O)c2cccc(O)c2C4=O)OC1C (stereo not given in full)
inactive: dose: 0.5 mg/kg/injection, schedule: Q01DX009 (ip), vehicle: saline with Tween-80 97 % of control | dose: 1.0 mg/kg/injection, schedule: Q01DX009 (ip), vehicle: saline with Tween-80 112 % of control | dose: 2.0 mg/kg/injection, schedule: Q01DX009 (ip), vehicle: saline with Tween-80 109 % of control | dose: 4.0 mg/kg/injection, schedule: Q01DX009 (ip), vehicle: saline with Tween-80 117 % of control | dose: 8.0 mg/kg/injection, schedule: Q01DX009 (ip), vehicle: saline with Tween-80 115 % of control | dose: 16.0 mg/kg/injection, schedule: Q01DX009 (ip), vehicle: saline with Tween-80 124 % of control

CC(C)C1=CC2=CCC3C(C)(CN)CCCC3(C)C2CC1CCN (stereo not given)
inactive: dose: 1.25 mg/kg/injection, schedule: Q01DX009 (ip), vehicle: saline with Tween-80 100 % of control | dose: 1.25 mg/kg/injection, schedule: Q04DX003 (ip), vehicle: saline with Tween-80 104 % of control | dose: 2.5 mg/kg/injection, schedule: Q01DX009 (ip), vehicle: saline with Tween-80 99 % of control | dose: 2.5 mg/kg/injection, schedule: Q04DX003 (ip), vehicle: saline with Tween-80 88 % of control | dose: 5.0 mg/kg/injection, schedule: Q01DX009 (ip), vehicle: saline with Tween-80 91 % of control | dose: 5.0 mg/kg/injection, schedule: Q04DX003 (ip), vehicle: saline with Tween-80 90 % of control

ClC(c1ccccc1)c1ccc(Br)cc1 (stereo not given)
inactive: [1] 105 % of control | [2] 97 % of control | [3] 88 % of control

CNc1nc(N(C)C)nc(N(C)C)n1
inactive: [4] 115 % of control | dose: 6.25 mg/kg/injection, schedule: Q01DX009 (ip), vehicle: water 96 % of control and 100 % of control | [5] 111 % of control | dose: 12.5 mg/kg/injection, schedule: Q01DX009 (ip), vehicle: water 95 % of control and 102 % of control | [6] 111 % of control | dose: 25.0 mg/kg/injection, schedule: Q01DX009 (ip), vehicle: water 94 % of control | [7] 116 % of control | dose: 50.0 mg/kg/injection, schedule: Q01DX009 (ip), vehicle: water 100 % of control and 118 % of control | [8] 116 % of control | dose: 100.0 mg/kg/injection, schedule: Q01DX009 (ip), vehicle: water 100 % of control and 105 % of control

C(/C=C/C=C/N1CCCCC1)=[N+]1CCCCC1
inactive: dose: 0.13 mg/kg/injection, schedule: Q01DX009 (ip), vehicle: saline 96 % of control | dose: 0.25 mg/kg/injection, schedule: Q01DX009 (ip), vehicle: saline 107 % of control | dose: 0.5 mg/kg/injection, schedule: Q01DX009 (ip), vehicle: saline 101 % of control | dose: 1.0 mg/kg/injection, schedule: Q01DX009 (ip), vehicle: saline 105 % of control

CCCCNC(C)(C)C(SSSC(c1cccs1)C(C)(C)NCCCC)c1cccs1 (stereo not given)
inactive: [9] 96 % of control | [10] 86 % of control

CSc1ccc(NC(=O)Nc2ccccc2)cc1
inactive: [2] 102 % of control | [3] 98 % of control | [11] 95 % of control

Cc1ccc2c([N+](=O)[O-])cccc2n1
inactive: [12] 107 % of control | [1] 93 % of control | [2] 98 % of control

C=CCN1CCCC1=O
inactive: [13] 102 % of control | [14] 95 % of control | [15] 100 % of control

CC(C)N1C(=O)C=C(c2ccc([N+](=O)[O-])cc2)C1=O
inactive: [9] 95 % of control | [16] 99 % of control

c1cc2ccc3ccc(C4CO4)c4ccc(c1)c2c34 (stereo not given)
inactive: dose: 3.12 mg/kg/injection, schedule: Q01DX009 (ip), vehicle: Klucel (hydroxypropylcellulose) (HPC) 95 % of control | dose: 6.25 mg/kg/injection, schedule: Q01DX009 (ip), vehicle: Klucel (hydroxypropylcellulose) (HPC) 96 % of control | [17] 100 % of control | [12] 86 % of control

COc1ccc(CC(CO)C(CO)Cc2ccc(OC)c(OC)c2)cc1OC (stereo not given)
inactive: [2] 93 % of control | [3] 100 % of control | [11] 103 % of control

COC(=O)C1(C(=O)OC)C2C(=O)C3C(C21)C3(C(=O)OC(C)(C)C)C(=O)OC(C)(C)C (stereo not given)
inactive: [18] 111 % of control | [19] 101 % of control | [20] 98 % of control

CC(C)(C)OC(=O)NC(CCC(N)=O)C(=O)O (stereo not given)
inactive: [7] 96 % of control | [8] 97 % of control | [21] 96 % of control

CC(=N)/C(C(=O)NC1CCCCC1)=C(/C)O
inactive: [13] 100 % of control | [14] 97 % of control | [15] 97 % of control

C=CC12COC(=O)C(=C)C1C1OC(=O)C(=C)C1C(O)C2 (stereo not given)
inactive: dose: 0.93 mg/kg/injection, schedule: Q01DX009 (ip), vehicle: Klucel (hydroxypropylcellulose) (HPC) 95 % of control | dose: 1.87 mg/kg/injection, schedule: Q01DX009 (ip), vehicle: Klucel (hydroxypropylcellulose) (HPC) 104 % of control | dose: 3.75 mg/kg/injection, schedule: Q01DX009 (ip), vehicle: Klucel (hydroxypropylcellulose) (HPC) 101 % of control | dose: 7.5 mg/kg/injection, schedule: Q01DX009 (ip), vehicle: Klucel (hydroxypropylcellulose) (HPC) 98 % of control

CCOc1ccccc1NC(=O)Nc1cccc(Cl)c1
inactive: [2] 106 % of control | [3] 96 % of control | [11] 106 % of control

COc1ccc2c3c1OC1C4(CCC5C(C2)N(CC2CC2)CCC351)OCCO4 (stereo not given)
inactive: [6] 97 % of control | [7] 97 % of control | [8] 90 % of control

Brc1ccc(C=C2c3ccccc3-c3ccccc32)cc1
inactive: [18] 97 % of control | [19] 105 % of control | [20] 102 % of control

O=P(OCC(Br)CBr)(OCC(Br)CBr)OCC(Br)CBr (stereo not given)
inactive: [18] 100 % of control | [19] 102 % of control | [20] 101 % of control

CN(C)CCOCCOC(=O)N1c2ccccc2Sc2ccccc21
inactive: [4] 102 % of control | [5] 112 % of control | [6] 116 % of control | [7] 109 % of control

CN=C(N)Nc1ccc(C(=O)Oc2ccc([N+](=O)[O-])cc2)cc1
inactive: [17] 103 % of control | [12] 102 % of control | [1] 104 % of control | [2] 106 % of control

O=C(CC(NC(=O)OCc1ccccc1)C(=O)O)OCc1ccccc1 (stereo not given)
inactive: [10] 93 % of control | [16] 104 % of control | [2] 102 % of control | [22] 102 % of control | [3] 106 % of control | [23] 87 % of control

Cc1cccc(C)c1NC(=O)Nc1ccc(Cl)c(Cl)c1
inactive: dose: 25.0 mg/kg/injection, schedule: Q01DX009 (ip), vehicle: other 95 % of control | dose: 50.0 mg/kg/injection, schedule: Q01DX009 (ip), vehicle: other 99 % of control | dose: 100.0 mg/kg/injection, schedule: Q01DX009 (ip), vehicle: other 87 % of control and 103 % of control

CSCCC(NC(C)=O)C(=O)NNC(C)C (stereo not given)
inactive: [6] 105 % of control | [7] 88 % of control | [8] 123 % of control | [21] 88 % of control | dose: 400.0 mg/kg/injection, schedule: Q01DX009 (ip), vehicle: saline 97 % of control

CC1(C)SC(C(NC(=O)COc2ccccc2)C(=O)O)NC1C(=O)O (stereo not given)
inactive: [1] 107 % of control | [2] 110 % of control | [3] 105 % of control

CC1=C(c2cc3ccccc3c3ccccc23)CCCC1
inactive: [22] 90 % of control | [23] 88 % of control | dose: 400.0 mg/kg/injection, schedule: Q01DX009 (ip), vehicle: saline with Tween-80 91 % of control

CC(C)c1ccc(C(c2c(O)c3ccccc3oc2=O)c2c(O)c3ccccc3oc2=O)cc1
inactive: [17] 99 % of control | [12] 97 % of control | [1] 107 % of control
